Data as given in US20070027195A1, “Novel compositions comprising higher primary alcohols and nicottinic acid and process of preparation thereof” (PANACEA BIOTEC LTD., priority 2004, published 2007).
Marks after values point to notes of the source that are not given here.

System: mice fed with hypercholesterolemic diet
Assay: Cholesterol diet-induced hypercholesterolemia in mice (serum lipid profile)
Assay type: in vivo, Swiss mice
Conditions: for HDL-C / LDL-C / Total cholesterol / Triglycerides / VLDL-C: hypercholesterolemic diet, fasting serum, mean ± S.E.M.
Description: In the present invention, the observed unexpected synergistic lipid lowering effect of combination of Extract-A and nicotinic acid is evidenced by the test conducted in mice. Swiss mice of either sex were procured from Central Animal House facility; Panacea Biotec Ltd., India. Animals weighing 20-25 g at the time of testing were used throughout. All animals were dosed sequentially by the oral route with Extract-A and/or nicotinic acid suspended in 0.5% of carboxy methyl cellulose (CMC). A dosing volume of 10 ml/kg was used for each sequential suspension.
The fasting serum lipid profile (TC, TGs, LDL-C, HDL-C, and VLDL) was estimated before initiation of the experiment. Total study duration was of 8 weeks. Hypercholesterolemia was induced by feeding standard chow mixed with 1% cholesterol and 0.2% cholic acid to mice (Kaur and Kulkarni, 2000). Control animals received standard mice chow for 8 weeks whereas cholesterolemic control animals received hypercholesterolemic diet for 8 weeks. The presence of hyperlipidemia in mice was confirmed by estimating serum lipid parameters after 4 weeks. Thereafter, various doses of Extract-A and/or nicotinic acid were administered for another 4 weeks during which animals were fed with high cholesterol diet. Blood samples were collected from fasted mice and analyzed for any alteration in serum lipid profile after 4 weeks of test compound(s) administration.
All the data were expressed as mean ±S.E.M. (Standard Error of Mean). Student t-test was used to compare the lipid parameters between animals fed with standard and hypercholesterolemic diet. The difference between various drug treated groups was analyzed by ANOVA followed by Dunnett's test. A value of P<0.05 was considered as statistically significant.

With `O=C(O)c1cccnc1` [Nicotinic acid] the HDL-C (10 mg/kg p.o. for 4 weeks) was 45.82 ± 4.9^a mg/dl, the LDL-C (10 mg/kg p.o. for 4 weeks) was 65.5 ± 7.01^a mg/dl and the Total cholesterol (10 mg/kg p.o. for 4 weeks) was 118.0 ± 4.3^a mg/dl. For the same molecule, the Triglycerides (10 mg/kg p.o. for 4 weeks) was 33.3 ± 2.6^a mg/dl, the VLDL-C (10 mg/kg p.o. for 4 weeks) was 20 ± 0.52^a mg/dl and the HDL-C (20 mg/kg p.o. for 4 weeks) was 42.16 ± 3.19^a mg/dl. For the same molecule, the LDL-C (20 mg/kg p.o. for 4 weeks) was 61.2 ± 2.14^a mg/dl, the Total cholesterol (20 mg/kg p.o. for 4 weeks) was 109.5 ± 1.60^a mg/dl and the Triglycerides (20 mg/kg p.o. for 4 weeks) was 30.66 ± 1.58^a mg/dl. For the same molecule, the VLDL-C (20 mg/kg p.o. for 4 weeks) was 6.13 ± 0.31^a mg/dl, the HDL-C (40 mg/kg p.o. for 4 weeks) was 51.33 ± 2.04^a mg/dl and the LDL-C (40 mg/kg p.o. for 4 weeks) was 44.53 ± 2.17^a mg/dl. For the same molecule, the Total cholesterol (40 mg/kg p.o. for 4 weeks) was 101.6 ± 2.59^a mg/dl, the Triglycerides (40 mg/kg p.o. for 4 weeks) was 29.0 ± 1.46^a mg/dl and the VLDL-C (40 mg/kg p.o. for 4 weeks) was 5.8 ± 0.29^a mg/dl. For the same molecule, the “Effect on serum lipid parameters in comparison to hypercholesterolemic control (in words)” value (10-40 mg/kg, p.o., dose dependently) was “reversed all the serum lipid parameters”.
